# Assay results from patent US11981686B2, “Urea compound having substituent” (DAIICHI SANKYO COMPANY, LIMITED, priority 2019, dated 2024).
# Biological target: SIRT6 enzyme (Homo sapiens, UniProt Q8N6T7)
# Test: Measurement of deacetylation activity (SIRT6, AlphaLISA, H3K9(Ac) peptide)
# Format: biochemical
# Details: SIRT6 25 ng/mL, H3K9(Ac) biotin peptide 2 nM, NAD 10 μM, room temperature 30 minutes, duplicate
# Procedure, shortened: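 SIRT6 (25 ng/mL final) in Tris-HCl pH 8.0 buffer with compound (e.g. 0.046–100 μM final) reacted with biotin-H3K9(Ac) peptide (2 nM) and NAD+ (10 μM), 30 min, room temperature. Stopped with nicotinamide plus AlphaLISA anti-unmodified H3K9/K27 beads, 60 min; EC150 (150% relative activity) from sigmoidal fit.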
# Sequence of SIRT6 enzyme (Q8N6T7 whole entry, species assumed): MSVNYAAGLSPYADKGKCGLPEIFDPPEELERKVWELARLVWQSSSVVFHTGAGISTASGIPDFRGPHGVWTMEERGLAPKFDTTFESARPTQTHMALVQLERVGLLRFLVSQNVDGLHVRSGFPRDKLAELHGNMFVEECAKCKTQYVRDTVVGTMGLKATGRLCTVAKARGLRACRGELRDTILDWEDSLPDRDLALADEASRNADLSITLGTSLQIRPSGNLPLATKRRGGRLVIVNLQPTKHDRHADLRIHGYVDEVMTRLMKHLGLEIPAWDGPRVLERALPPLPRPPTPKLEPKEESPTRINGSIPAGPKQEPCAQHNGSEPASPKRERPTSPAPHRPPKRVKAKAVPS
row,Compound,EC150 (the concentration of the compound showing a relative enzyme activity of 150%)
1,"C[C@H](CO)NC(=O)Nc1nc2c(s1)C1COCC(C2)N1c1nc(-c2cccc(C(F)F)c2)no1 (stereo partly drawn) [Example 124, N-(10-{3-[3-(difluoromethyl)phenyl]-1,2,4-oxadiazol-5-yl}-4,7,8,9-tetrahydro-5H-4,8-epiminooxocino[5,4-d][1,3]thiazol-2-yl)-N′-[(2R)-1-hydroxypropan-2-yl]urea]",0.39 μm
2,"COc1ccc2oc(N3[C@@H]4COC[C@H]3c3sc(NC(=O)N[C@H](C)CO)nc3C4)nc2c1 [Example 38, N-[(2R)-1-hydroxypropan-2-yl]-N′-[(4S,8S)-10-(5-methoxy-1,3-benzoxazol-2-yl)-4,7,8,9-tetrahydro-5H-4,8-epiminooxocino[5,4-d][1,3]thiazol-2-yl]urea]",2 μm
3,"CNC(=O)Nc1nc2c(s1)CN(c1nc(C3CCCC(F)(F)C3)no1)CC2 (stereo not drawn) [Example 36, N-{5-[3-(3,3-difluorocyclohexyl)-1,2,4-oxadiazol-5-yl]-4,5,6,7-tetrahydro[1,3]thiazolo[5,4-c]pyridin-2-yl}-N′-methylurea]",1.9 μm
4,"O=C(Nc1nc2c(s1)[C@@H]1COC[C@H](C2)N1c1ncc(-c2cccc(OC(F)F)c2)o1)N[C@H]1C[C@H](O)C1 [Example 167, N-[(4S,8S)-10-{5-[3-(difluoromethoxy)phenyl]-1,3-oxazol-2-yl}-4,7,8,9-tetrahydro-5H-4,8-epiminooxocino[5,4-d][1,3]thiazol-2-yl]-N′-[(1r,3S)-3-hydroxycyclobutyl]urea]",0.43 μm
5,"COc1ccc2oc(N3Cc4sc(NC(=O)NCC(C)(C)O)nc4CC3(C)C)nc2c1 [Example 190, N-(2-hydroxy-2-methylpropyl)-N′-[5-(5-methoxy-1,3-benzoxazol-2-yl)-6,6-dimethyl-4,5,6,7-tetrahydro[1,3]thiazolo[5,4-c]pyridin-2-yl]urea]",1.7 μm
6,"CNC(=O)Nc1nc2c(s1)CN(c1nc(C34CCC(F)(CC3)C4)no1)CC2 [Example 93, N-{5-[3-(4-fluorobicyclo[2.2.1]heptan-1-yl)-1,2,4-oxadiazol-5-yl]-4,5,6,7-tetrahydro[1,3]thiazolo[5,4-c]pyridin-2-yl}-N′-methylurea]",0.7 μm
7,"O=C(Nc1nc2c(s1)C1COCC(C2)N1c1nc(-c2ccc(F)cc2)no1)N[C@H]1C[C@H](CO)C1 (stereo partly drawn) [Example 84, N-{10-[3-(4-fluorophenyl)-1,2,4-oxadiazol-5-yl]-4,7,8,9-tetrahydro-5H-4,8-epiminooxocino[5,4-d][1,3]thiazol-2-yl}-N′-[(1r,3r)-3-(hydroxymethyl)cyclobutyl]urea]",0.62 μm
8,"Cc1ccc2oc(N3[C@@H]4COC[C@H]3c3sc(NC(=O)NCC(C)(C)O)nc3C4)nc2c1 [Example 145, N-(2-hydroxy-2-methylpropyl)-N′-[(4S,8S)-10-(5-methyl-1,3-benzoxazol-2-yl)-4,7,8,9-tetrahydro-5H-4,8-epiminooxocino[5,4-d][1,3]thiazol-2-yl]urea]",2.2 μm
9,"CC(C)(CO)NC(=O)Nc1nc2c(s1)[C@@H]1COC[C@H](C2)N1c1cc(-c2ccc(F)cc2)on1 [Example 160, N-{(4S,8S)-10-[5-(4-fluorophenyl)-1,2-oxazol-3-yl]-4,7,8,9-tetrahydro-5H-4,8-epiminooxocino[5,4-d][1,3]thiazol-2-yl}-N′-(1-hydroxy-2-methylpropan-2-yl)urea]",3.2 μm
10,"O=C(NCc1ccnc(O)c1)Nc1nc2c(s1)[C@@H]1COC[C@H](C2)N1c1ncc(-c2cccc(OC(F)F)n2)o1 [Example 177, N-[(4S,8S)-10-{5-[6-(difluoromethoxy)pyridin-2-yl]-1,3-oxazol-2-yl}-4,7,8,9-tetrahydro-5H-4,8-epiminooxocino[5,4-d][1,3]thiazol-2-yl]-N′-[(2-hydroxypyridin-4-yl)methyl]urea]",0.28 μm
11,"CC(C)(CO)NC(=O)Nc1nc2c(s1)[C@@H]1COC[C@H](C2)N1c1nc(-c2ccc(F)cc2)no1 [Example 90, N-{(4S,8S)-10-[3-(4-fluorophenyl)-1,2,4-oxadiazol-5-yl]-4,7,8,9-tetrahydro-5H-4,8-epiminooxocino[5,4-d][1,3]thiazol-2-yl}-N′-(1-hydroxy-2-methylpropan-2-yl)urea]",2.5 μm
12,"O=C(NCc1cncnc1)Nc1nc2c(s1)CN(c1nc(C3CCC(F)(F)CC3)no1)CC2 [Example 99, N-{5-[3-(4,4-difluorocyclohexyl)-1,2,4-oxadiazol-5-yl]-4,5,6,7-tetrahydro[1,3]thiazolo[5,4-c]pyridin-2-yl}-N′-[(pyrimidin-5-yl)methyl]urea]",1.1 μm
13,"CCOc1cccc(-c2cnc(N3[C@@H]4COC[C@H]3c3sc(NC(=O)N[C@H](C)CO)nc3C4)o2)n1 [Example 68, N-{(4S,8S)-10-[5-(6-ethoxypyridin-2-yl)-1,3-oxazol-2-yl]-4,7,8,9-tetrahydro-5H-4,8-epiminooxocino[5,4-d][1,3]thiazol-2-yl}-N′-[(2R)-1-hydroxypropan-2-yl]urea]",1 μm
14,"CNC(=O)Nc1nc2c(s1)CN(c1nc(C3CCC(F)(F)CC3)no1)CC2 [Example 1, N-{5-[3-(4,4-difluorocyclohexyl)-1,2,4-oxadiazol-5-yl]-4,5,6,7-tetrahydro[1,3]thiazolo[5,4-c]pyridin-2-yl}-N′-methylurea]",1.7 μm
15,"COc1cccc(-c2cnc(N3[C@@H]4COC[C@H]3c3sc(NC(=O)N[C@@H]5CCOC5)nc3C4)o2)n1 [Example 185, N-{(4S,8S)-10-[5-(6-methoxypyridin-2-yl)-1,3-oxazol-2-yl]-4,7,8,9-tetrahydro-5H-4,8-epiminooxocino[5,4-d][1,3]thiazol-2-yl}-N′-[(3R)-oxolan-3-yl]urea]",0.4 μm
16,"CNC(=O)Nc1nc2c(s1)[C@@H]1COC[C@H](C2)N1c1nnc(-c2cccc(C(C)C)c2)o1 [Example 119, N-methyl-N′-[(4S,8S)-10-{5-[3-(propan-2-yl)phenyl]-1,3,4-oxadiazol-2-yl}-4,7,8,9-tetrahydro-5H-4,8-epiminooxocino[5,4-d][1,3]thiazol-2-yl]urea]",2.2 μm
17,"COc1cccc(-c2cnc(N3[C@@H]4COC[C@H]3c3sc(NC(=O)NC5CCOCC5)nc3C4)o2)n1 [Example 186, N-{(4S,8S)-10-[5-(6-methoxypyridin-2-yl)-1,3-oxazol-2-yl]-4,7,8,9-tetrahydro-5H-4,8-epiminooxocino[5,4-d][1,3]thiazol-2-yl}-N′-oxan-4-ylurea]",0.48 μm
18,"O=C(Nc1nc2c(s1)[C@@H]1COC[C@H](C2)N1c1ncc(-c2cccc(OC(F)F)n2)o1)N[C@@H]1COC[C@H]1O [Example 175, N-[(4S,8S)-10-{5-[6-(difluoromethoxy)pyridin-2-yl]-1,3-oxazol-2-yl}-4,7,8,9-tetrahydro-5H-4,8-epiminooxocino[5,4-d][1,3]thiazol-2-yl]-N′-[(3R,4S)-4-hydroxyoxolan-3-yl]urea]",0.27 μm
